This test relates to CEM cells HIV-1 protection, formazan growth assay. The test is described as follows: NCI AIDS Antiviral Assay. The settings on record: for IC50: measured here: growth of uninfected CEM cells. The method, then: The ability of compounds to protect human CEM cells from HIV-1 infection is measured as a screen for new compounds capable of inhibiting the HIV virus. Five concentrations of drug were tested on uninfected and infected cells and cell growth was measured using a soluble formazan assay. […] Compounds that provided at least 50% protection were retested. Compounds that provided at least 50% protection on retest were listed as moderately active. Compounds that reproducibly provided 100% protection were listed as confirmed active. […] Note that the inability to provide protection could be due to toxicity.

Activity calls are given as the source filed them.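 How the source made its calls: active means compounds giving half or more protection of infected cells from virus-caused growth loss, again on retest; inactive means the rest.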

The EC50 is the concentration at which the effect is half-maximal. By IC50 is commonly meant the concentration that inhibits the measured activity by half. Read a low IC50 as greater potency. With `O=S(=O)(O/C1=C/CCCCCC1)C(F)(F)F`, the EC50 is greater than 100 µM and the half-inhibitory concentration (IC50) is greater than 100 µM.
As to `CN1CCc2ccccc2C(C(=O)c2ccc(Cl)cc2)C1=O` (stereo unspecified), the EC50 was greater than 83.2 µM and the IC50 was greater than 83.2 µM.
Consider `COc1ccc2c(c1)OC(OC)(c1ccccc1)C(O)(OC)C2=O` (stereo unspecified), for which the EC50 was greater than 200 µM and the IC50 was found to be 15.1 µM.
In the same order, the values of `CC(=O)N1CC(C)(C)c2c1cc(C)c(O)c2C` are greater than 200 µM and 132 µM.
As to `Cc1ccc(S(=O)(=O)c2ccccc2[N+](=O)[O-])cc1`, the EC50 is 14.5 µM and the IC50 stood at 81.3 µM.
As for `CC(=O)c1cc([N+](=O)[O-])ccc1OCC(=O)O`, the outcome was inactive.
Consider `O=S(=O)(O)c1cc(N=Nc2ccc(O)cc2O)ccc1/C=C/c1ccc(N=Nc2ccc(O)cc2O)cc1S(=O)(=O)O`, for which the EC50 was greater than 70.8 µM and the IC50 worked out at 66.1 µM.
In the same order, the values of `O=C(O)[C@@H]1CSC(c2ccccc2F)N1` (stereo partly specified) are greater than 200 µM and greater than 200 µM.
In the same order, the values of `COc1ccccc1/C=C1\S/C(=N/Nc2nc(C)c(C(C)=O)s2)NC1=O` are greater than 200 µM and 112 µM.
For `O=c1oc(-c2cccc(-c3nc4c(c(=O)o3)CCS4)c2)nc2c1CCS2`, the EC50 was greater than 200 µM.
With `CCOC(=O)/C(C#N)=C/c1ccccc1Cl`, the outcome was inactive.
Regarding `C/C(CCN(C)C)=N\OC(=O)c1ccccc1`, the EC50 was greater than 200 µM and the IC50 is greater than 200 µM.
As for `O=c1c2nn3c(=O)n(-c4ccccc4)c(=O)c3nn2c(=O)n1-c1ccccc1`, the EC50 is greater than 200 µM and the IC50 was greater than 200 µM.
Turning to `CC12OC(=O)C(C(N)=O)=C1C=C(c1ccccc1)CC2c1ccccc1` (stereo unspecified), the EC50 was greater than 200 µM and the IC50 amounted to 33.1 µM.
For the compound `C=C(C)[C@@H]1CC[C@]2(C(=O)O)CC[C@]3(C)[C@H](CC[C@@H]4[C@@]5(C)CC[C@H](C(=O)/C=C/c6ccc(O)cc6)C(C)(C)[C@@H]5CC[C@]43C)[C@@H]12`, the EC50 is greater than 200 µM and the IC50 came out at 2.34 µM.
In the same order, the values of `CC(C)(C)C1CCC2c3c([nH]c4ccccc34)C3C(=O)N(c4cccc(Cl)c4)C(=O)C3C2C1` (stereo unspecified) are greater than 200 µM and 11 µM.
As to `CCc1c(C)[nH]c2c1/C(=N/N=C1\CCCc3[nH]c(C)c(CC)c31)CCC2`, the outcome was inactive.
The same measure, in the same setting: with `Nc1ccc(CCN2CCN(c3cccc(C(F)(F)F)c3)CC2)cc1I` the entry was “inactive”.
Turning to `CN(C)CCCNC(CC#N)CCC#N` (stereo unspecified), the EC50 is greater than 200 µM and the IC50 is greater than 200 µM.
Turning to `COc1ccc(-c2cncc(-c3ccc(OC)c(OC)c3)c2)cc1OC`, the EC50 is greater than 20.4 µM and the IC50 was greater than 20.4 µM.
As for `CC12O[C@H](c3ccccc3)[C@H](c3ccccc3)N1C(=O)C1(C(=O)OCc3ccccc3)CC12` (stereo partly specified), the EC50 was greater than 22.9 µM and the IC50 was greater than 22.9 µM.
For `COC(=O)c1c2c(cc3c1CC1(C3)Cc3cc4c(c(C(C)=O)c3C1)CCC4)C=CC2` (stereo unspecified), the EC50 is greater than 200 µM and the IC50 is greater than 200 µM.
As to `Nc1nc(Cl)cc(NCCCCCNc2cc(Cl)nc(N)n2)n1`, the outcome was inactive.
With `O=C1NC2CCCCCC2C12CCCCC2` (stereo unspecified), the result was inactive.
Regarding `O=C(Nc1ccccc1)C(=O)C(C(=O)c1ccccc1)C(c1ccccc1)c1ccccc1` (stereo unspecified), the EC50 was greater than 200 µM and the 50% inhibitory concentration (IC50) was 37.2 µM.
Take `CCCCOC(=S)SSC(=S)OCCCC`: the EC50 is greater than 56.2 µM and the IC50 worked out at 11.5 µM.
For `O=C(Nc1ccc(C(F)(F)F)cc1[N+](=O)[O-])C(=O)C(C(=O)c1ccc2ccccc2c1)C1OC(=O)c2ccccc21` (stereo unspecified) the same measures were greater than 64.6 µM and 33.9 µM.
Regarding `Cc1ccc(NC=O)c(-c2c(N)[nH]c(=S)[nH]c2=O)c1`, the EC50 is greater than 200 µM and the concentration for half-maximal inhibition (IC50) was 148 µM.
In the same order, the values of `C=CCOc1ccc(/C(N=Nc2ccc(C)cc2)=N/NC(=O)c2ccccc2)cc1OC` are greater than 200 µM and 10 µM.

The values above are taken from PubChem BioAssay AID179 (DTP/NCI, 2004).
